Common to all, as to format: biochemical
One assay deals with human recombinant PDE10A (Homo sapiens, UniProt Q9Y233). In words: Inhibition of recombinant PDE activity, SPA test: PDE10A. Particulars: human recombinant enzyme; read-out: IC50 on PDE 10A. As for the experimental part: (§1) Measurement of the Inhibition of Phosphodiesterase Activity Phosphodiesterase activity is measured in a modified SPA (scintillation proximity assay) test, supplied by Amersham Biosciences (see procedural instructions “phosphodiesterase [3H]cAMP SPA enzyme assay, code TRKQ 7090”), carried out in 96-well microtitre plates (MTP's): The test volume is 100 μl and contains 20 mM Tris buffer (pH 7.4), 0.1 mg of BSA (bovine serum albumin)/ml, 5 mM Mg^2+, 0.5 μM cGMP or cAMP (including about 50,000 cpm of [3H]cGMP or [3H]cAMP as a tracer; whether to use cAMP or cGMP depends on the substrate-specificity of the phosphodiesterase measured), 1 μl of the respective substance dilution in DMSO and sufficient recombinant PDE to ensure that 10-20% of the cGMP or cAMP is converted under the said experimental conditions. […] After a preincubation of 5 min at 37° C., the reaction is started by adding the substrate (cGMP) and the assay is incubated for a further 15 min; after that, it is stopped by adding SPA beads (50 μl). […] After the beads have been sedimented (>30 min), the MTP's are analyzed in commercially available luminescence detection devices. The corresponding IC50 values of the compounds for the inhibition of PDE activity are determined from the concentration-effect curves by means of non-linear regression.
Sequence of human recombinant PDE10A (Q9Y233 290-1055 limits assumed): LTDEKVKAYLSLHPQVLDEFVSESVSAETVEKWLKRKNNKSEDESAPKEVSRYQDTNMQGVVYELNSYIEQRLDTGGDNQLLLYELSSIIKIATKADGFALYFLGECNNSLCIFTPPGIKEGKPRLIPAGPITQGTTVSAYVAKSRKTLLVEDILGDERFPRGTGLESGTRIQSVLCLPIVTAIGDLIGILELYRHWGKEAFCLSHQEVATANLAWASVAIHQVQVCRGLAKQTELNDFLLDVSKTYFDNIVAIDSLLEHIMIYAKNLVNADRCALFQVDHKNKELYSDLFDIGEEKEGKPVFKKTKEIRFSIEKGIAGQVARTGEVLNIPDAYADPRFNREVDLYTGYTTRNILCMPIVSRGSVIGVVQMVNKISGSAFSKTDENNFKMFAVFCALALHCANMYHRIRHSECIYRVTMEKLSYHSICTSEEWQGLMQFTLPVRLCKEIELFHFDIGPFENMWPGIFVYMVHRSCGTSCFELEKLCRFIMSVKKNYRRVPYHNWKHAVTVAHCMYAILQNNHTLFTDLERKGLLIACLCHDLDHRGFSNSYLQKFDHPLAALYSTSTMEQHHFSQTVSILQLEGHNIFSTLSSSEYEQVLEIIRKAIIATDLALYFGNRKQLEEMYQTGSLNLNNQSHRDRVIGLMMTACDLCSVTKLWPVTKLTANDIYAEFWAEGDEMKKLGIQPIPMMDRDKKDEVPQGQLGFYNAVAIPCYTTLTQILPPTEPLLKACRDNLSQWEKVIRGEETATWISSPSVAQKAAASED
(§2) Compound A and B are analyzed for inhibition of PDE family members as described.

The next assay deals with human recombinant PDE3A1 (Homo sapiens, UniProt Q14432). The assay is described as follows: Inhibition of recombinant PDE activity, SPA test: PDE3A1. The settings on record: human recombinant enzyme; read-out: IC50 on PDE 3A1. As for the experimental part:
as §1, §2

For another assay, the target named is human recombinant PDE2A3 (Homo sapiens, UniProt O00408). In words: Inhibition of recombinant PDE activity, SPA test: PDE2A3. Particulars: human recombinant enzyme; read-out: IC50 on PDE 2A3. The method, then:
as §1, §2

Another assay concerns the target human recombinant PDE4B2 (Homo sapiens, UniProt Q07343). In words: Inhibition of recombinant PDE activity, SPA test: PDE4B2. Particulars: human recombinant enzyme; read-out: IC50 on PDE 4B2. As for the experimental part:
as §1, §2

In another assay the target is human recombinant PDE5A1 (Homo sapiens, UniProt O76074). The assay is described as follows: Inhibition of recombinant PDE activity, SPA test: PDE5A1. Particulars: human recombinant enzyme; read-out: IC50 on PDE 5A1. As for the experimental part:
as §1, §2

The target of assay [1] is human recombinant PDE11A4 (Homo sapiens, UniProt Q9HCR9). The assay is described as follows: Inhibition of recombinant PDE activity, SPA test: PDE11A4. The settings on record: human recombinant enzyme; read-out: IC50 on PDE 11A4. As for the experimental part: as §1, §2
Sequence of human recombinant PDE11A4 (Q9HCR9 whole entry): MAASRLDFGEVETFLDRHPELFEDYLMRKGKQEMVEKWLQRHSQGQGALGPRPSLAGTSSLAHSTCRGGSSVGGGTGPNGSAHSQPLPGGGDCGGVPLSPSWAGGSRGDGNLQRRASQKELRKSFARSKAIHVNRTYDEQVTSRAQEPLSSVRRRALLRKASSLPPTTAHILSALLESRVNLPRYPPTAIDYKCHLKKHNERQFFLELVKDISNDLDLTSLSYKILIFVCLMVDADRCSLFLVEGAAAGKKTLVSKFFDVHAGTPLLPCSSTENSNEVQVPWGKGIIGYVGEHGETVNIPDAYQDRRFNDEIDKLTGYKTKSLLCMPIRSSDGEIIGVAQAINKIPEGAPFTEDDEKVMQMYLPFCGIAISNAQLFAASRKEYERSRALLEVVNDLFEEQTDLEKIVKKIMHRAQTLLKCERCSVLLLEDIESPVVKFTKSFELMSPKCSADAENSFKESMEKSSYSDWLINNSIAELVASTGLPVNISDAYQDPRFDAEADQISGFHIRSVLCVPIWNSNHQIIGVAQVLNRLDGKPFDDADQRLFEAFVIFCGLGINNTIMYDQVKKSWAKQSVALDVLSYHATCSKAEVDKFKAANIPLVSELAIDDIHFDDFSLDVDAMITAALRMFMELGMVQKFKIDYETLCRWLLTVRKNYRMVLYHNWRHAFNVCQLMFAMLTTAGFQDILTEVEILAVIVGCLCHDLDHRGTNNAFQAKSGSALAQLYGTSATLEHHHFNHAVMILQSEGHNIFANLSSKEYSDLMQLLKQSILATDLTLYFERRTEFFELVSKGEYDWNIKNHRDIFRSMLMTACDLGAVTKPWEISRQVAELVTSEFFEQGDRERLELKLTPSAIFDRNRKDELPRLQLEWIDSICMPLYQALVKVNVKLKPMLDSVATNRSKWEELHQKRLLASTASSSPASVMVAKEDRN
The target of the next assay is human recombinant PDE1C1 (Homo sapiens, UniProt Q14123). In words: Inhibition of recombinant PDE activity, SPA test: PDE1C1. Particulars: for IC50: human recombinant enzyme, read-out: IC50 on PDE 1C1; for Selectivity for PDE1C1 versus other PDE family members tested: see Tab. 1. The method, then: Measurement of the Inhibition of Phosphodiesterase Activity Phosphodiesterase activity is measured in a modified SPA (scintillation proximity assay) test, supplied by Amersham Biosciences (see procedural instructions “phosphodiesterase [3H]cAMP SPA enzyme assay, code TRKQ 7090”), carried out in 96-well microtitre plates (MTP's): The test volume is 100 μl and contains 20 mM Tris buffer (pH 7.4), 0.1 mg of BSA (bovine serum albumin)/ml, 5 mM Mg^2+, 0.5 μM cGMP or cAMP (including about 50,000 cpm of [3H]cGMP or [3H]cAMP as a tracer; whether to use cAMP or cGMP depends on the substrate-specificity of the phosphodiesterase measured), 1 μl of the respective substance dilution in DMSO and sufficient recombinant PDE to ensure that 10-20% of the cGMP or cAMP is converted under the said experimental conditions. […] After a preincubation of 5 min at 37° C., the reaction is started by adding the substrate (cGMP) and the assay is incubated for a further 15 min; after that, it is stopped by adding SPA beads (50 μl). In accordance with the manufacturer's instructions, the SPA beads had previously been resuspended in water, but were then diluted 1:3 (v/v) in water; the diluted solution also contains 3 mM IBMX to ensure a complete PDE activity stop. After the beads have been sedimented (>30 min), the MTP's are analyzed in commercially available luminescence detection devices. The corresponding IC50 values of the compounds for the inhibition of PDE activity are determined from the concentration-effect curves by means of non-linear regression.
Sequence of human recombinant PDE1C1 (Q14123 1-634 isoform Q14123-2): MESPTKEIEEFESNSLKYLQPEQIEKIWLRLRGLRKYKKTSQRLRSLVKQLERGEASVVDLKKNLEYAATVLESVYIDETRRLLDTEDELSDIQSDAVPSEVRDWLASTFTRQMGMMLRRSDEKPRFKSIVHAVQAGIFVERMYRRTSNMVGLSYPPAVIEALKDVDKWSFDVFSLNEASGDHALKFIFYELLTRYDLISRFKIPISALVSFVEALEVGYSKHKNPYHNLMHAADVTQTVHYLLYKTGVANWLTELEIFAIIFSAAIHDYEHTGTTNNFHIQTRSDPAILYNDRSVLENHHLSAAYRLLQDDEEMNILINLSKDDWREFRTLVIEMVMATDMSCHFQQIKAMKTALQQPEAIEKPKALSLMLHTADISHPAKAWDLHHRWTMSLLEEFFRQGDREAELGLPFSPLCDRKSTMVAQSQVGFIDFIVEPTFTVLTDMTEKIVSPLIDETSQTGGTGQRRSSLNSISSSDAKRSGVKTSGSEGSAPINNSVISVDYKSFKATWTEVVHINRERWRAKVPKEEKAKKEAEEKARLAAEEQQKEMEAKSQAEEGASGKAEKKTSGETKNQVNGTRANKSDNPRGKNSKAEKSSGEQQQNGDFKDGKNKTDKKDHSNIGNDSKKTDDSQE
as §2

In the next assay the test system is PDE3. The assay is described as follows: PDE isoenzyme activities in cellular lysates: PDE3. The settings on record: 10 μM, 0.5 μM cyclic AMP. As for the experimental part: (§3) Cells (1-3×10^6) were washed twice in phosphate buffered saline (4° C.) and resuspended in 1 ml homogenization buffer (137 mM NaCl, 2.7 mM KCl, 8.1 mM Na2HPO4, 1.5 mM KH2PO4, 10 mM HEPES, 1 mM EGTA, 1 mM MgCl2, 1 mM-mercaptoethanol, […], […], 50 mM phenylmethylsulfonyl fluoride, 10 mM soybean trypsin inhibitor, 2 mM benzamidine, pH 8.2). Cells were disrupted by sonication (Branson sonifier, 3×15 s) and lysates were immediately used for phosphodiesterase (PDE) activity measurements. PDE activities were assessed in cellular lysates as described (Thompson & Appleman, 1979) with some modifications (Bauer & Schwabe, 1980). The assay mixture (final volume […]) contained (mM): Tris HCl 30; pH 7.4, MgCl2 5, 0.5 μM either cyclic AMP or cyclic GMP as substrate including [^3H]cAMP or [^3H]cGMP (about 30 000 c.p.m. per well), […], PDE isoenzyme-specific activators and inhibitors as described below and cellular lysates. Incubations were performed for 60 min at 37° C. and reactions were terminated by adding […] 0.2 M HCl per well. Assays were left on ice for 10 min and then […] 5′-nucleotidase (Crotalus atrox) was added. […] Columns were eluted with 2 ml 30 mM ammonium formiate (pH 6.0) and radioactivity in the eluate was counted. […] Briefly, PDE4 was calculated as the difference of PDE activities at 0.5 μM cyclic AMP in the presence and absence of 1 μM Piclamilast. […]

In a further assay the target is T1, PDE2 (Homo sapiens, UniProt O00408).
T1 construct: endogenous in cells
T1 sequence (O00408 whole entry): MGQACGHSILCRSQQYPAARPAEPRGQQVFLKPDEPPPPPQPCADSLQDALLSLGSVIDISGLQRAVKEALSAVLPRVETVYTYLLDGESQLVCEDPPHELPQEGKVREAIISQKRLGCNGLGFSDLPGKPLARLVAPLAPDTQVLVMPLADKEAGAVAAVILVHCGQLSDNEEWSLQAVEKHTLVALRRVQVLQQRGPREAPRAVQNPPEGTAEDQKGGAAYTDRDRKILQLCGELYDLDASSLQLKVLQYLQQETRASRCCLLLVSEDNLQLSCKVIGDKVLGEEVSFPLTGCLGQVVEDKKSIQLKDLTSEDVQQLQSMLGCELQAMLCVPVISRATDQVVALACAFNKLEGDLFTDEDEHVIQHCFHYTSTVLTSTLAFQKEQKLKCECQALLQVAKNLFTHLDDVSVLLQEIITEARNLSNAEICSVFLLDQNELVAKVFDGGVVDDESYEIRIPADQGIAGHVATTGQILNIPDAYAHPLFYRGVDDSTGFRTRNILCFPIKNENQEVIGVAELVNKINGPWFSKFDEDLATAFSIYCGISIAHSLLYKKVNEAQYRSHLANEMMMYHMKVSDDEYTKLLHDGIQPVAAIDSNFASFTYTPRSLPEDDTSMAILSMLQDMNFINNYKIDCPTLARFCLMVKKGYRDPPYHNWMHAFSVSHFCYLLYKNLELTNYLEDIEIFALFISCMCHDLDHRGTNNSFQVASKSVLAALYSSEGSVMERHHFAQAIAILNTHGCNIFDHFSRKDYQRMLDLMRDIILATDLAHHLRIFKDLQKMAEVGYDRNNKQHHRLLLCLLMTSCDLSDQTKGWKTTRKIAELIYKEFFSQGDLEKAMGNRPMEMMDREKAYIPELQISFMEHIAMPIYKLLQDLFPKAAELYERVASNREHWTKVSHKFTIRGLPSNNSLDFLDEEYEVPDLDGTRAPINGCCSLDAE
In words: PDE isoenzyme activities in cellular lysates: PDE2. Particulars: 100 nM. The method, then:
as §3

Another assay has as its system PDE4. In words: PDE isoenzyme activities in cellular lysates: PDE4. Particulars: 1 μM, 0.5 μM cyclic AMP. As for the experimental part:
as §3

The target of the next assay is T2, PDE5 (Homo sapiens, UniProt O76074).
T2 construct: PDE activities were assessed in cellular lysates; endogenous in cells
In words: PDE isoenzyme activities in cellular lysates: PDE5. Particulars: 100 nM, 0.5 μM cyclic GMP.

Sequence of human recombinant PDE2A3 (O00408 whole entry): as above
Sequence of human recombinant PDE3A1 (Q14432 whole entry): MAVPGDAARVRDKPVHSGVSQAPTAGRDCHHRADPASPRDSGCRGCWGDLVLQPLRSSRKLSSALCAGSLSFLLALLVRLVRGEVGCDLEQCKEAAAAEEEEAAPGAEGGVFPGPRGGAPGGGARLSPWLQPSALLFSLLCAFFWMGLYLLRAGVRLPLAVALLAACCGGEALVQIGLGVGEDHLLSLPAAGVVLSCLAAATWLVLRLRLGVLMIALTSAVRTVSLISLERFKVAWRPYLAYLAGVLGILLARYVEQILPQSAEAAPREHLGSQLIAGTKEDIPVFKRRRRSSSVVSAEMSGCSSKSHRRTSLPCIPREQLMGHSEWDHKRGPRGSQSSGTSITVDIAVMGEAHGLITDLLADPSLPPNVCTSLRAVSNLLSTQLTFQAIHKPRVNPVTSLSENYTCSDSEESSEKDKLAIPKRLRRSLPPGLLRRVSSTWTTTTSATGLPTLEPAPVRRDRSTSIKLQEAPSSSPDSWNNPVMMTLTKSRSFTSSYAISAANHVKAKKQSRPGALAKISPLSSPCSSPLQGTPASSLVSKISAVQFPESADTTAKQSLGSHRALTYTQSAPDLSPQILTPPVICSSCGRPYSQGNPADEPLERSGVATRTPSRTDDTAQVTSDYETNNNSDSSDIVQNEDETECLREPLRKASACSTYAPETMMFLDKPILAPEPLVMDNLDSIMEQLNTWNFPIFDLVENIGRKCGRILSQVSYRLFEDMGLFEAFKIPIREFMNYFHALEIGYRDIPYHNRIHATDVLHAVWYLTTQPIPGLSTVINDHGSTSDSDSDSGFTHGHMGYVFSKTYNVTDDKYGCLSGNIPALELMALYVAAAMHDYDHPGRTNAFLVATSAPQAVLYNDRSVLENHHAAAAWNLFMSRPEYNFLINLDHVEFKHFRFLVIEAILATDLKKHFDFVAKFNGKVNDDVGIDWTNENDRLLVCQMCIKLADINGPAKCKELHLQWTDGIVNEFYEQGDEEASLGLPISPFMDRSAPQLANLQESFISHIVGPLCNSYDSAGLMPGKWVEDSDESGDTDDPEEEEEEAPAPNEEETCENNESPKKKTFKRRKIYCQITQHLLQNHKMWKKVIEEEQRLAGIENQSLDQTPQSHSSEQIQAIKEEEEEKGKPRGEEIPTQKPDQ
Sequence of human recombinant PDE4B2 (Q07343 1-564 isoform Q07343-2): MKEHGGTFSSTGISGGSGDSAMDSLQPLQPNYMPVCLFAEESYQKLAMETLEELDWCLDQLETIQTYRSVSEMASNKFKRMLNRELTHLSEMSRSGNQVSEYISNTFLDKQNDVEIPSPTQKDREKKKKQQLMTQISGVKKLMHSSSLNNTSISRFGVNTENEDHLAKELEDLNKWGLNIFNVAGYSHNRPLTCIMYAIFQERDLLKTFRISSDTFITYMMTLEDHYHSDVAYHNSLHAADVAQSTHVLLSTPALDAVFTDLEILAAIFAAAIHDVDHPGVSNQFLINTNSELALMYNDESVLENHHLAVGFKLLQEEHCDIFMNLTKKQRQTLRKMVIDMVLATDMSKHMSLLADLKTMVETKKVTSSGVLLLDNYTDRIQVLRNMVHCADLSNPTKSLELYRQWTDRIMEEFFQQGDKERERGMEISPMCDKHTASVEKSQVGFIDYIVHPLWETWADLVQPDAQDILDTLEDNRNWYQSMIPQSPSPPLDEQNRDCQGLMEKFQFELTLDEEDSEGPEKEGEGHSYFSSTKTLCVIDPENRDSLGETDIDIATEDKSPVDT

Usually IC50 stands for the midpoint of a concentration-inhibition curve. With `CC(C)(C)CC(C)(C)c1ccc(OCC(=O)N/N=C/c2ccc(-c3cccc(C(=O)O)c3)o2)c([N+](=O)[O-])c1` [Compound A], the IC50 (at human recombinant PDE10A; on human recombinant PDE3A1; at human recombinant PDE2A3; on human recombinant PDE4B2; on human recombinant PDE5A1; in [1]) was over 100 µM throughout. Also, the IC50 at human recombinant PDE1C1 was determined as 0.083 µM. Further, the “IC50 value on human recombinant PDE1C1, in words” value at human recombinant PDE1C1 is on record as “in the nanomolar range”. In addition, the “Selectivity for PDE1C1 versus other PDE family members tested” value on human recombinant PDE1C1 is “selective versus other PDE family members tested”.

On to `Cc1ccc(/C(O)=C2/C(=O)C(=O)N(c3ccccc3)C2=S)cc1` [Compound B, 4-[Hydroxy(4-methylphenyl)methylidene]-1-phenyl-5-thioxopyrrolidine-2,3-dione], for which the IC50 on human recombinant PDE10A was 77 µM; at human recombinant PDE3A1, over 100 µM; on human recombinant PDE2A3, 13 µM; on human recombinant PDE4B2, 9.3 µM; at human recombinant PDE5A1, 16 µM; in assay [1] it was 22 µM. The IC50 at human recombinant PDE1C1 is 0.1 µM. Besides, on human recombinant PDE1C1, the “IC50 value on human recombinant PDE1C1, in words” value is given as “in the nanomolar range”. On human recombinant PDE1C1, the “Selectivity for PDE1C1 versus other PDE family members tested” value is listed as “selective versus other PDE family members tested”.

With `CC1CC(=O)NN=C1c1cc(-n2ccnc2)cs1` (stereo not shown) [Motapizone], in the assay with PDE3, the “Block of PDE3 activity” value is on record as “completely blocked”.

For the compound `COc1ccc(Cc2nc3c(ncn3C(CCCc3ccccc3)C(C)=O)c(=O)[nH]2)cc1OC` (stereo not shown) [PDP], the “Inhibition of cyclic GMP-induced cyclic AMP degrading activity increment (PDE2)” value on PDE2 is given as “completely inhibited”.

`COc1ccc(C(=O)Nc2c(Cl)cncc2Cl)cc1OC1CCCC1` [Piclamilast]: in the assay on PDE4, the “Block of PDE4 activity” value is “completely blocked”.

For `CCCc1nn(C)c2c(=O)[nH]c(-c3cc(S(=O)(=O)N4CCN(C)CC4)ccc3OCC)nc12` [Sildenafil], the “Block of PDE5 activity” value on PDE5 is “completely blocked”.

The record behind these values is US20090030065A1, “Use of Pde1c and Inhibitors Thereof” (NYCOMED GmbH, priority 2005, published 2009).
